In the supplement of paper PMC10307832:

Key:
Experiment in all cases: relative viability (nuclei count vs DMSO), 5 days (fraction); higher = more cells survive
CAL-12T = tested on: CAL-12T
Summary of the method: (§1)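 Dosing by pin tool came one day after lung cancer cell lines were seeded in 1536-well plates, using either one drug or a fixed anchor-drug dose plus five library-drug doses (not always all listed) in √10 steps. After 5 days, nuclei were counted on 4× images. Relative viability is treated-well nuclei count divided by vehicle-well nuclei count, and values are medians of duplicate plates.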

NCI-H2228 = tested on: NCI-H2228
Summary of the method: as §1

UMC-11 = tested on: UMC-11
Summary of the method: as §1

LC-2-ad = tested on: LC-2-ad
Summary of the method: as §1

NCI-H2405 = tested on: NCI-H2405
Summary of the method: as §1

LOU-NH91 = tested on: LOU-NH91
Summary of the method: as §1

HCC-78 = tested on: HCC-78
Summary of the method: as §1

NCI-H2170 = tested on: NCI-H2170
Summary of the method: as §1

NCI-H3122 = tested on: NCI-H3122
Summary of the method: as §1

ABC-1 = tested on: ABC-1
Summary of the method: as §1

NCI-H1395 = tested on: NCI-H1395
Summary of the method: as §1

ChaGo-K-1 = tested on: ChaGo-K-1
Summary of the method: as §1

NCI-H2087 = tested on: NCI-H2087
Summary of the method: as §1

NCI-H1793 = tested on: NCI-H1793
Summary of the method: as §1

NCI-H460 = tested on: NCI-H460
Summary of the method: as §1

NCI-H1651 = tested on: NCI-H1651
Summary of the method: as §1

RERF-LC-KJ = tested on: RERF-LC-KJ
Summary of the method: as §1

LU99A = tested on: LU99A
Summary of the method: as §1

NCI-H1755 = tested on: NCI-H1755
Summary of the method: as §1

NCI-H1944 = tested on: NCI-H1944
Summary of the method: as §1

HCC-366 = tested on: HCC-366
Summary of the method: as §1

PC-3 [JPC-3] = tested on: PC-3 [JPC-3]
Summary of the method: as §1

COc1cc2nccc(Oc3ccc(NC(=O)Nc4cc(C)on4)c(Cl)c3)c2cc1OC [Tivozanib] + CC(=O)c1c(C)c2cnc(Nc3ccc(N4CCNCC4)cn3)nc2n(C2CCCC2)c1=O [Palbociclib] (partner 0.5 µM)
relative viability (CAL-12T; first compound 0.005 µM): 0.407
relative viability (CAL-12T; first compound 0.01581 µM): 0.433
relative viability (CAL-12T; first compound 0.05 µM): 0.465
relative viability (CAL-12T; first compound 0.1581 µM): 0.224
relative viability (CAL-12T; first compound 0.5 µM): 0.402
relative viability (NCI-H2228; first compound 0.005 µM): 0.688
relative viability (NCI-H2228; first compound 0.01581 µM): 0.68
relative viability (NCI-H2228; first compound 0.05 µM): 0.883
relative viability (NCI-H2228; first compound 0.1581 µM): 0.321
relative viability (NCI-H2228; first compound 0.5 µM): 0.643
relative viability (UMC-11; first compound 0.005 µM): 0.288
relative viability (UMC-11; first compound 0.01581 µM): 0.327
relative viability (UMC-11; first compound 0.05 µM): 0.32
relative viability (UMC-11; first compound 0.1581 µM): 0.304
relative viability (UMC-11; first compound 0.5 µM): 0.307
relative viability (LC-2-ad; first compound 0.005 µM): 0.471
relative viability (LC-2-ad; first compound 0.01581 µM): 0.47
relative viability (LC-2-ad; first compound 0.05 µM): 0.478
relative viability (LC-2-ad; first compound 0.1581 µM): 0.369
relative viability (LC-2-ad; first compound 0.5 µM): 0.297
relative viability (NCI-H2405; first compound 0.005 µM): 0.534
relative viability (NCI-H2405; first compound 0.01581 µM): 0.55
relative viability (NCI-H2405; first compound 0.05 µM): 0.528
relative viability (NCI-H2405; first compound 0.1581 µM): 0.527
relative viability (NCI-H2405; first compound 0.5 µM): 0.466
relative viability (LOU-NH91; first compound 0.005 µM): 0.431
relative viability (LOU-NH91; first compound 0.01581 µM): 0.498
relative viability (LOU-NH91; first compound 0.05 µM): 0.513
relative viability (LOU-NH91; first compound 0.1581 µM): 0.549
relative viability (LOU-NH91; first compound 0.5 µM): 0.538
relative viability (HCC-78; first compound 0.005 µM): 0.514
relative viability (HCC-78; first compound 0.01581 µM): 0.438
relative viability (HCC-78; first compound 0.05 µM): 0.474
relative viability (HCC-78; first compound 0.1581 µM): 0.416
relative viability (HCC-78; first compound 0.5 µM): 0.463
relative viability (NCI-H2170; first compound 0.005 µM): 0.398
relative viability (NCI-H2170; first compound 0.01581 µM): 0.392
relative viability (NCI-H2170; first compound 0.05 µM): 0.414
relative viability (NCI-H2170; first compound 0.5 µM): 0.388
relative viability (NCI-H3122; first compound 0.005 µM): 0.164
relative viability (NCI-H3122; first compound 0.01581 µM): 0.207
relative viability (NCI-H3122; first compound 0.05 µM): 0.187
relative viability (NCI-H3122; first compound 0.1581 µM): 0.212
relative viability (NCI-H3122; first compound 0.5 µM): 0.184
relative viability (ABC-1; first compound 0.005 µM): 0.638
relative viability (ABC-1; first compound 0.01581 µM): 0.732
relative viability (ABC-1; first compound 0.05 µM): 0.562
relative viability (ABC-1; first compound 0.1581 µM): 0.511
relative viability (ABC-1; first compound 0.5 µM): 0.437
relative viability (NCI-H1395; first compound 0.005 µM): 0.581
relative viability (NCI-H1395; first compound 0.01581 µM): 0.587
relative viability (NCI-H1395; first compound 0.05 µM): 0.659
relative viability (NCI-H1395; first compound 0.1581 µM): 0.55
relative viability (NCI-H1395; first compound 0.5 µM): 0.509
relative viability (ChaGo-K-1; first compound 0.005 µM): 0.879
relative viability (ChaGo-K-1; first compound 0.01581 µM): 0.916
relative viability (ChaGo-K-1; first compound 0.05 µM): 0.898
relative viability (ChaGo-K-1; first compound 0.1581 µM): 0.947
relative viability (ChaGo-K-1; first compound 0.5 µM): 0.886
relative viability (NCI-H2087; first compound 0.005 µM): 0.271
relative viability (NCI-H2087; first compound 0.01581 µM): 0.288
relative viability (NCI-H2087; first compound 0.05 µM): 0.259
relative viability (NCI-H2087; first compound 0.1581 µM): 0.231
relative viability (NCI-H2087; first compound 0.5 µM): 0.231
relative viability (NCI-H1793; first compound 0.005 µM): 0.309
relative viability (NCI-H1793; first compound 0.01581 µM): 0.343
relative viability (NCI-H1793; first compound 0.05 µM): 0.354
relative viability (NCI-H1793; first compound 0.5 µM): 0.422
relative viability (NCI-H460; first compound 0.005 µM): 0.147
relative viability (NCI-H460; first compound 0.01581 µM): 0.196
relative viability (NCI-H460; first compound 0.05 µM): 0.141
relative viability (NCI-H460; first compound 0.1581 µM): 0.22
relative viability (NCI-H460; first compound 0.5 µM): 0.209
relative viability (NCI-H1651; first compound 0.005 µM): 0.524
relative viability (NCI-H1651; first compound 0.01581 µM): 0.516
relative viability (NCI-H1651; first compound 0.05 µM): 0.522
relative viability (NCI-H1651; first compound 0.1581 µM): 0.547
relative viability (NCI-H1651; first compound 0.5 µM): 0.543
relative viability (RERF-LC-KJ; first compound 0.005 µM): 1.01
relative viability (RERF-LC-KJ; first compound 0.01581 µM): 1.05
relative viability (RERF-LC-KJ; first compound 0.05 µM): 1.11
relative viability (RERF-LC-KJ; first compound 0.1581 µM): 1.08
relative viability (RERF-LC-KJ; first compound 0.5 µM): 1.04
relative viability (LU99A; first compound 0.005 µM): 0.431
relative viability (LU99A; first compound 0.01581 µM): 0.412
relative viability (LU99A; first compound 0.05 µM): 0.429
relative viability (LU99A; first compound 0.1581 µM): 0.306
relative viability (LU99A; first compound 0.5 µM): 0.408
relative viability (NCI-H1755; first compound 0.005 µM): 0.437
relative viability (NCI-H1755; first compound 0.01581 µM): 0.467
relative viability (NCI-H1755; first compound 0.05 µM): 0.442
relative viability (NCI-H1755; first compound 0.1581 µM): 0.421
relative viability (NCI-H1755; first compound 0.5 µM): 0.403
relative viability (NCI-H1944; first compound 0.005 µM): 0.303
relative viability (NCI-H1944; first compound 0.01581 µM): 0.365
relative viability (NCI-H1944; first compound 0.05 µM): 0.344
relative viability (NCI-H1944; first compound 0.1581 µM): 0.296
relative viability (NCI-H1944; first compound 0.5 µM): 0.324
relative viability (HCC-366; first compound 0.005 µM): 0.394
relative viability (HCC-366; first compound 0.01581 µM): 0.422
relative viability (HCC-366; first compound 0.05 µM): 0.362
relative viability (HCC-366; first compound 0.1581 µM): 0.343
relative viability (HCC-366; first compound 0.5 µM): 0.322
relative viability (PC-3 [JPC-3]; first compound 0.01581 µM): 0.55
relative viability (PC-3 [JPC-3]; first compound 0.05 µM): 0.554
relative viability (PC-3 [JPC-3]; first compound 0.1581 µM): 0.609
relative viability (PC-3 [JPC-3]; first compound 0.5 µM): 0.55
